Test results published in patent US11981658B2, “Substituted aminopyridine compounds as EGFR inhibitors” (YUHAN CORPORATION, priority 2021, dated 2024).
Like-named read-outs stand apart in the source and are kept apart here.

Experiments:
[1] = target: EGFR L858R/T790M/C797S (Homo sapiens, UniProt P00533, C797S/L858R/T790M); test: Biochemical EGFR kinase inhibition assay (Lance Ultra TR-FRET), triple mutant L858R/T790M/C797S
How it was run: (§1)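 Kinase activity is measured by TR-FRET phosphopeptide detection. Compounds span 0.003 μM to 10 μM; the 1 h reaction at room temperature is quenched with EDTA, then labelled antibody (2 nM) is incubated 60 min before reading.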

[2] = target: EGFR Del19/T790M/C797S (Homo sapiens, UniProt P00533, C797S/DEL746-750/T790M); test: Biochemical EGFR kinase inhibition assay (Lance Ultra TR-FRET), triple mutant del19/T790M/C797S
How it was run: as §1

[3] = target: EGFR Del19/C797S (Homo sapiens, UniProt P00533, C797S/DEL746-750); test: Biochemical EGFR kinase inhibition assay (Lance Ultra TR-FRET), double mutant del19/C797S
How it was run: as §1

[4] = target: EGFR wildtype (WT) (Homo sapiens, UniProt P00533); test: Biochemical EGFR kinase inhibition assay (Lance Ultra TR-FRET), wildtype
How it was run: as §1

[5] = target: EGFR L858R/C797S (Homo sapiens, UniProt P00533, C797S/L858R); test: Biochemical EGFR kinase inhibition assay (Lance Ultra TR-FRET), double mutant L858R/C797S
How it was run: as §1

[6] = ATP at Km, read-out: IC50 L858R/T790M/C797S (nM), Km ATP
[7] = IC50 L858R/T790M/C797S (nM), 100 μM ATP
[8] = ATP at Km, read-out: IC50 Del19/T790M/C797S (nM), Km ATP
[9] = IC50 Del19/T790M/C797S (nM), 100 μM ATP
[10] = ATP at Km, read-out: IC50 Del19/C797S (nM), Km ATP
[11] = IC50 Del19/C797S (nM), 100 μM ATP
[12] = ATP at Km, read-out: IC50 WT (nM), Km ATP
[13] = ATP at Km, read-out: IC50 L858R/C797S (nM), Km ATP
[14] = IC50 L858R/C797S (nM), 100 μM ATP
[15] = Km ATP, read-out: IC50 L858R/T790M/C797S (nM), Km ATP
[16] = Km ATP, read-out: IC50 Del19/T790M/C797S (nM), Km ATP
[17] = Km ATP, read-out: IC50 Del19/C797S (nM), Km ATP
[18] = Km ATP, read-out: IC50 WT (nM), Km ATP
[19] = Km ATP, read-out: IC50 L858R/C797S (nM), Km ATP
[20] = Km ATP, read-out: IC50 Del19/T790M/C797S (nM) Km ATP
[21] = Km ATP, read-out: IC50 Del19/C797S (nM) Km ATP
[22] = Km ATP, read-out: IC50 WT (nM) Km ATP
[23] = Km ATP, read-out: IC50 L858R/C797S (nM) Km ATP

EGFR Del19/T790M/C797S, sequence (P00533 with tags, fused parts or gaps DEL746-750/T790M/C797S): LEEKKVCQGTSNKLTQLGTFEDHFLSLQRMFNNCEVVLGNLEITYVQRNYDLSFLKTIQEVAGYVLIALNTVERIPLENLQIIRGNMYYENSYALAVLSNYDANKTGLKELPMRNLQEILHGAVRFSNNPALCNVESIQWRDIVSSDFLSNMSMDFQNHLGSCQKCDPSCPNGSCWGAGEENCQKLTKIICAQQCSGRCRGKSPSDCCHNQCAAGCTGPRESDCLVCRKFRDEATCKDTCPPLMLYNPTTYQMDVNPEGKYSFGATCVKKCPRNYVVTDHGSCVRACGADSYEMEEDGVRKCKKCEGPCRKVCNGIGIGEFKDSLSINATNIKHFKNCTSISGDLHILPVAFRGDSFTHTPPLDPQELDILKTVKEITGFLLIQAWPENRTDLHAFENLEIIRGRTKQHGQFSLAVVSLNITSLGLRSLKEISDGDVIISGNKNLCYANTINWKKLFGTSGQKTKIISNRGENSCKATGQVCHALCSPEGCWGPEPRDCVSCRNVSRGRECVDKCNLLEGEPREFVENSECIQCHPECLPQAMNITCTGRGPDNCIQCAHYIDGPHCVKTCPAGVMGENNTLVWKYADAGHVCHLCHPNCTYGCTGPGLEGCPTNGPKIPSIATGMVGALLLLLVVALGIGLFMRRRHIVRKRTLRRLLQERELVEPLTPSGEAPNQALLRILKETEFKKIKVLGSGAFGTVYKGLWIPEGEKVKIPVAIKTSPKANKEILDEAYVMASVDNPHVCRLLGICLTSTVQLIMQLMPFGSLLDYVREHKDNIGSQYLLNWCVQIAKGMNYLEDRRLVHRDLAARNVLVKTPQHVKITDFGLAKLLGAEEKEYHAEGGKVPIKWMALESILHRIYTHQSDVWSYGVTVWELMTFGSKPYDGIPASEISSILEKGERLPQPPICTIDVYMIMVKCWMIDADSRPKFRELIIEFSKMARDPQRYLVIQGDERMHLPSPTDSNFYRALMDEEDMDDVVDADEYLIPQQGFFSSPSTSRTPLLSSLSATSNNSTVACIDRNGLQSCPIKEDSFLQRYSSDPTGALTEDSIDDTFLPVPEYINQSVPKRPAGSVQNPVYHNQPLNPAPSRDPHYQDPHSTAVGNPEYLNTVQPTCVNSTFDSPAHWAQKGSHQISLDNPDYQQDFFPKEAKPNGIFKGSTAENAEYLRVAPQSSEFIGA
EGFR L858R/C797S, sequence (P00533 25-1210 C797S/L858R): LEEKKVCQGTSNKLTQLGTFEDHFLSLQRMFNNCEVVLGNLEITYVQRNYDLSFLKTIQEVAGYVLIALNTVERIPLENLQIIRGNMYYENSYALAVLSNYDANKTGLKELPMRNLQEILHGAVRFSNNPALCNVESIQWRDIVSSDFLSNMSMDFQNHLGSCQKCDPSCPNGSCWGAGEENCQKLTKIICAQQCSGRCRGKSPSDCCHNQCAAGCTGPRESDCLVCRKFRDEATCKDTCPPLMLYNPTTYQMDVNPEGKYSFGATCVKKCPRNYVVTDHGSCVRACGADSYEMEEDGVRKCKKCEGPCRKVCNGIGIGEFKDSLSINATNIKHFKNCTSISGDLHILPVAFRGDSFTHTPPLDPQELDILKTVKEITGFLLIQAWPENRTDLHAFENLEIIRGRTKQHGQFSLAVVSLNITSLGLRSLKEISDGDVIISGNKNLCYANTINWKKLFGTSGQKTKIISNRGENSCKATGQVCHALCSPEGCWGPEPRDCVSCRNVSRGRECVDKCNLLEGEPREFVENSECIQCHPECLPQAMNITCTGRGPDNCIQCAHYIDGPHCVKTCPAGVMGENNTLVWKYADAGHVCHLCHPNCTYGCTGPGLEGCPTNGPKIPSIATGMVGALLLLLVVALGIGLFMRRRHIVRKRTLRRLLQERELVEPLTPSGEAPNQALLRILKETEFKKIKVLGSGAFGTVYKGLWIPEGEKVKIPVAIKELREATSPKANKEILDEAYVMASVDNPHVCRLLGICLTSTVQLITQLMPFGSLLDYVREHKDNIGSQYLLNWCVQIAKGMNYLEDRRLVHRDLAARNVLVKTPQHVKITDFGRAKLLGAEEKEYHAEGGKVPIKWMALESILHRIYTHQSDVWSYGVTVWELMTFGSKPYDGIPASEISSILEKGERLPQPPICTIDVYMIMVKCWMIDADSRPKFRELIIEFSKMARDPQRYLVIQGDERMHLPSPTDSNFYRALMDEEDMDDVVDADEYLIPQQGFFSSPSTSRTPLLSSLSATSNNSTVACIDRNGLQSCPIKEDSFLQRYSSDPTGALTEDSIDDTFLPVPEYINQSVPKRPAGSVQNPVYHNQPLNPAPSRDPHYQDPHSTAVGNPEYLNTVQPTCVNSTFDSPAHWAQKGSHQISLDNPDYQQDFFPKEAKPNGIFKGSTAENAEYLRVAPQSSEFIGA
EGFR wildtype (WT), sequence (P00533 25-1210): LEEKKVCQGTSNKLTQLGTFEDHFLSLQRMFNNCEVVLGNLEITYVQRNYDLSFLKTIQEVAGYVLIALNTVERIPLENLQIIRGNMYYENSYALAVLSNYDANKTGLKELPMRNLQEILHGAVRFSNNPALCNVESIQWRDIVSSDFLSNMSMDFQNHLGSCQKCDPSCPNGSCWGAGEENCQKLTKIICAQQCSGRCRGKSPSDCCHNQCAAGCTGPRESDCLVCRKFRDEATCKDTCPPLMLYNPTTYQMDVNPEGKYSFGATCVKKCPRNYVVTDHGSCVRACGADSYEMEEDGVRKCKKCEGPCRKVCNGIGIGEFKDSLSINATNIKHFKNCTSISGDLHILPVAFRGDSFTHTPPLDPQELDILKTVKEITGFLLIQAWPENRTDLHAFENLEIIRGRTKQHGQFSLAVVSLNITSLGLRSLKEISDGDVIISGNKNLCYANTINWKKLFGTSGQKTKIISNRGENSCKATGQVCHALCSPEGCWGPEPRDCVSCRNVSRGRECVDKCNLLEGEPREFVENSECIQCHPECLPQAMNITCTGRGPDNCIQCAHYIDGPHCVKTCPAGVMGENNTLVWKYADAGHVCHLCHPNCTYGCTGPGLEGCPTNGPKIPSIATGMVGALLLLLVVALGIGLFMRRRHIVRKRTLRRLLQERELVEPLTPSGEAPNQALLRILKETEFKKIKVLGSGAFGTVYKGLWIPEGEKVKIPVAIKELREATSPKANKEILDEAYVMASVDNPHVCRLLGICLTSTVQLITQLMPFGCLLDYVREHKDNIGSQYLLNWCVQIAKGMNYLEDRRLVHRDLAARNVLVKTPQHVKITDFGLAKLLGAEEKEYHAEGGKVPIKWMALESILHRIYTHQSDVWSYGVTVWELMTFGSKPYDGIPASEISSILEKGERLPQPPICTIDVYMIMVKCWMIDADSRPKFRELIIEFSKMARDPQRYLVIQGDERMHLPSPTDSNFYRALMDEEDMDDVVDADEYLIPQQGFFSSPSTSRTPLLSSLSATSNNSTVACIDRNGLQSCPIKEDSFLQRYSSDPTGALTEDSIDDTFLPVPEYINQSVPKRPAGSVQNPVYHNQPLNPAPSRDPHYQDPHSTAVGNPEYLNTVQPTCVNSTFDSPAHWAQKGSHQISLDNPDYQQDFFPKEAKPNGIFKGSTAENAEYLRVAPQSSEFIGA
EGFR L858R/T790M/C797S, sequence (P00533 25-1210 T790M/C797S/L858R): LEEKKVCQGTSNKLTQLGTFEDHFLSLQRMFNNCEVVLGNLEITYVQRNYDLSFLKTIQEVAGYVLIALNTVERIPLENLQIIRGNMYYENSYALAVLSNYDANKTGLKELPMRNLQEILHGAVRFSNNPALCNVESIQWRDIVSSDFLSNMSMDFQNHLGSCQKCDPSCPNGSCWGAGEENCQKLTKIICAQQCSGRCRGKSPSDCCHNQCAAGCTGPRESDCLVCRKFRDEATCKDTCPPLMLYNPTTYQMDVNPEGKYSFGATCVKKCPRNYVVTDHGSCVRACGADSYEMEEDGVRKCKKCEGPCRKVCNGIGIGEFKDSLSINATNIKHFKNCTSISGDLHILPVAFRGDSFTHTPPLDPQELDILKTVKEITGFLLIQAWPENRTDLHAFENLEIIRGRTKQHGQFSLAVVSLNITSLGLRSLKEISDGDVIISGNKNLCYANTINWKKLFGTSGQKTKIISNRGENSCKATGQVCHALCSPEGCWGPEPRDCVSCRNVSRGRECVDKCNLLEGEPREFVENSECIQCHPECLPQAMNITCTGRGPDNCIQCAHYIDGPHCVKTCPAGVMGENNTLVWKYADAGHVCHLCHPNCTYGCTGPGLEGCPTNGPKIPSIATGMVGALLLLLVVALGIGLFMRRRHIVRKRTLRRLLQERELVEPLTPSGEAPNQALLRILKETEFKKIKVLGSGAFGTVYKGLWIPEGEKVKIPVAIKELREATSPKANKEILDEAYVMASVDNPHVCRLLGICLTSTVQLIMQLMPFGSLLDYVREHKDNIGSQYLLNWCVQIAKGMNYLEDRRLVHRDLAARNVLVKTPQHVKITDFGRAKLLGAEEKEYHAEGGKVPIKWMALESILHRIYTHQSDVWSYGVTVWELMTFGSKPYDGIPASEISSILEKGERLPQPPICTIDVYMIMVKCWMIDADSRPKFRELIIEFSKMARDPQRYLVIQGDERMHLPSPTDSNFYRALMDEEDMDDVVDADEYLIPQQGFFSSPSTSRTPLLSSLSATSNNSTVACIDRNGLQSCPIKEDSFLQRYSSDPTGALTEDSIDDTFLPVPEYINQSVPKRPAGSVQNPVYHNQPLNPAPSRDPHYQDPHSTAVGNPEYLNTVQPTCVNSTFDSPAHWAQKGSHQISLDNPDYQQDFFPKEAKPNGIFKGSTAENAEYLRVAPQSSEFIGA

Compound	IC50 [1, 6]	IC50 [1, 7]	IC50 [2, 8]	IC50 [2, 9]	IC50 [3, 10]	IC50 [3, 11]	IC50 [4, 12]	IC50 ([4]; IC50 WT (nM), 100 μM ATP)	IC50 [5, 13]	IC50 [5, 14]	IC50 [1, 15]	IC50 [2, 16]	IC50 [3, 17]	IC50 [4, 18]	IC50 [5, 19]	IC50 [2, 20]	IC50 [3, 21]	IC50 [4, 22]	IC50 [5, 23]
O=S(=O)(C1CC1)n1cc(-c2nccc(Nc3cc(N[C@H]4CC[C@@H](O)CC4)c(C#CC4(O)CCCCC4)cn3)n2)cn1 [Example 174, 1-((6-((2-(1-(Cyclopropylsulfonyl)-1H-pyrazol-4-yl)pyrimidin-4-yl)amino)-4-(((1 s, 4s)-4-hydroxycyclohexyl)amino)pyridin-3-yl)ethynyl)cyclohexan-1-ol]	1.2 nM	2.1 nM	0.5 nM	0.9 nM	11 nM	10.8 nM	150 nM	> 10000 nM	30.5 nM	283 nM	–	–	–	–	–	–	–	–	–
CC1(C#Cc2cnc(Nc3ccnc(-c4cnn(S(=O)(=O)C5CC5)c4)n3)cc2NC[C@H]2CC[C@H](O)CC2)CC1 [Example 403, (1r,4r)-4-(((2-((2-(1-(Cyclopropylsulfonyl)-1H-pyrazol-4-yl)pyrimidin-4-yl)amino)-5-((1-methylcyclopropyl)ethynyl)pyridin-4-yl)amino)methyl)cyclohexan-1-ol]	–	50.3 nM	–	16.2 nM	–	140 nM	–	> 10000 nM	–	1920 nM	–	–	–	–	–	–	–	–	–
CC1(O)CCN(c2cc(Nc3ccnc(-c4cnn(S(=O)(=O)C5CC5)c4)n3)ncc2C#CC2(C)CC2)CC1 [Example 404, 1-(2-((2-(1-(Cyclopropylsulfonyl)-1H-pyrazol-4-yl)pyrimidin-4-yl)amino)-5-((1-methylcyclopropyl)ethynyl)pyridin-4-yl)-4-methylpiperidin-4-ol]	–	2.9 nM	–	1.7 nM	–	3.6 nM	–	9350 nM	–	55.6 nM	–	–	5.3 nM	45.8 nM	2.7 nM	–	–	–	–
C[C@]1(O)CC[C@H](CNc2cc(Nc3ccnc(-c4cnn(S(=O)(=O)C5CC5)c4)n3)ncc2C#Cc2cnn(CCF)c2)CC1 [Example 380, (1 r,4r)-4-(((2-((2-(1-(Cyclopropylsulfonyl)-1H-pyrazol-4-yl)pyrimidin-4-yl)amino)-5-((1-(2-fluoroethyl)-1H-pyrazol-4-yl)ethynyl)pyridin-4-yl)amino)methyl)-1-methylcyclohexan-1-ol]	–	5.4 nM	–	1.5 nM	–	58.7 nM	–	> 10000 nM	–	1170 nM	2.6 nM	2.4 nM	32.5 nM	114 nM	32.6 nM	–	–	–	–
O=S(=O)(C1CC1)n1cc(-c2nccc(Nc3cc(NC4CCC(CO)CC4)c(C#CC4CCOC4C(F)(F)F)cn3)n2)cn1 [Example 416, ((1s,4s)-4-((2-((2-(1-(Cyclopropylsulfonyl)-1H-pyrazol-4-yl)pyrimidin-4-yl)amino)-5-(((2R)-2-(trifluoromethyl)tetrahydrofuran-3-yl)ethynyl)pyridin-4-yl)amino)cyclohexyl)methanol]	–	2.8 nM	–	2.7 nM	–	8.2 nM	–	> 10000 nM	–	165 nM	0.9 nM	2.6 nM	7.2 nM	84.5 nM	33.6 nM	–	–	–	–
O=S(=O)(C1CC1)n1cc(-c2nccc(Nc3cc(NC[C@H]4CC[C@@H](O)C4)c(C#Cc4cnn(C(F)F)c4)cn3)n2)cn1 [Example 306, (1R,3S)-3-(((2-((2-(1-(Cyclopropylsulfonyl)-1H-pyrazol-4-yl)pyrimidin-4-yl)amino)-5-((1-(difluoromethyl)-1H-pyrazol-4-yl)ethynyl)pyridin-4-yl)amino)methyl)cyclopentan-1-ol]	0.4 nM	3.9 nM	1 nM	1.6 nM	3.4 nM	4.6 nM	14.6 nM	> 10000 nM	4.3 nM	6.8 nM	–	–	–	–	–	–	–	–	–
CC(C)(O)[C@H]1CC[C@@H](Nc2cc(Nc3ccnc(-c4cnn(S(=O)(=O)C5CC5)c4)n3)ncc2C#Cc2cnn(CC(F)(F)F)c2)CC1 [Example 346, 2-((1s,4s)-4-((2-((2-(1-(Cyclopropylsulfonyl)-1H-pyrazol-4-yl)pyrimidin-4-yl)amino)-5-((1-(2,2,2-trifluoroethyl)-1H-pyrazol-4-yl)ethynyl)pyridin-4-yl)amino)cyclohexyl)propan-2-ol]	–	5.8 nM	–	17.4 nM	–	45.3 nM	–	> 10000 nM	–	249 nM	–	–	–	–	–	–	–	–	–

The next molecules have a lower IC50 [1, 7] than those just listed; values first:

IC50 [1, 6]	IC50 [1, 7]	IC50 [2, 8]	IC50 [2, 9]	IC50 [3, 10]	IC50 [3, 11]	IC50 [4, 12]	IC50 ([4]; IC50 WT (nM), 100 μM ATP)	IC50 [5, 13]	IC50 [5, 14]	IC50 [1, 15]	IC50 [2, 16]	IC50 [3, 17]	IC50 [4, 18]	IC50 [5, 19]	IC50 [2, 20]	IC50 [3, 21]	IC50 [4, 22]	IC50 [5, 23]	Compound
0.8 nM	1.5 nM	2.2 nM	2.5 nM	1.6 nM	4.8 nM	11.9 nM	> 10000 nM	2.1 nM	39.3 nM	–	–	–	–	–	–	–	–	–	O=S(=O)(C1CC1)n1cc(-c2nccc(Nc3cc(NC4CCC(CO)CC4)c(C#Cc4cnn(C5CC5(F)F)c4)cn3)n2)cn1 (centres unmarked) [Example 327, ((1s,4s)-4-((2-((2-(1-(Cyclopropylsulfonyl)-1H-pyrazol-4-yl)pyrimidin-4-yl)amino)-5-((1-(2,2-difluorocyclopropyl)-1H-pyrazol-4-yl)ethynyl)pyridin-4-yl)amino)cyclohexyl)methanol]
–	1.5 nM	–	0.6 nM	–	4.1 nM	–	> 10000 nM	–	27.8 nM	–	–	–	–	–	0.6 nM	4 nM	22 nM	3.6 nM	Cn1cc(C#Cc2cnc(Nc3ccnc(-c4cnn(S(=O)(=O)C5CC5)c4)n3)cc2N2CCC(O)CC2)cn1 [Example 27, 1-(2-((2-(1-(Cyclopropylsulfonyl)-1H-pyrazol-4-yl)pyrimidin-4-yl)amino)-5-((1-methyl-1H-pyrazol-4-yl)ethynyl)pyridin-4-yl)piperidin-4-ol]
–	1.4 nM	–	1.3 nM	–	2.8 nM	–	> 10000 nM	–	22.3 nM	–	–	–	–	–	0.9 nM	3 nM	8.2 nM	4.4 nM	O=S(=O)(C1CC1)n1cc(-c2nccc(Nc3cc(N4CCC(CO)CC4)c(C#Cc4cnn(CCF)c4)cn3)n2)cn1 [Example 30, (1-(2-((2-(1-(Cyclopropylsulfonyl)-1H-pyrazol-4-yl)pyrimidin-4-yl)amino)-5-((1-(2-fluoroethyl)-1H-pyrazol-4-yl)ethynyl)pyridin-4-yl)piperidin-4-yl)methanol]
–	1.4 nM	–	0.7 nM	–	6.5 nM	–	> 10000 nM	–	52.3 nM	–	–	–	–	–	–	–	–	–	Cn1cc(C#Cc2cnc(Nc3ccnc(-c4cnn(S(=O)(=O)C5CC5)c4)n3)cc2N2CC[C@@H](O)C2)cn1 [Example 31, (R)-1-(2-((2-(1-(Cyclopropylsulfonyl)-1H-pyrazol-4-yl)pyrimidin-4-yl)amino)-5-((1-methyl-1H-pyrazol-4-yl)ethynyl)pyridin-4-yl)pyrrolidin-3-ol]
–	0.7 nM	–	0.6 nM	–	4.4 nM	–	> 10000 nM	–	36.7 nM	0.2 nM	0.3 nM	1.2 nM	9.5 nM	2.7 nM	–	–	–	–	CS(=O)(=O)N1CCC(C#Cc2cnc(Nc3ccnc(-c4cnn(S(=O)(=O)C5CC5)c4)n3)cc2N[C@H]2CC[C@@H](CO)CC2)CC1 [Example 387, ((1s,4s)-4-((2-((2-(1-(Cyclopropylsulfonyl)-1H-pyrazol-4-yl)pyrimidin-4-yl)amino)-5-((1-(methylsulfonyl)piperidin-4-yl)ethynyl)pyridin-4-yl)amino)cyclohexyl)methanol]
–	0.7 nM	–	0.5 nM	1.6 nM	1.8 nM	17.5 nM	8550 nM	0.7 nM	26 nM	–	–	–	–	–	–	–	–	–	CN(C)C[C@H]1CC[C@@H](Nc2cc(Nc3ccnc(-c4cnn(S(=O)(=O)C5CC5)c4)n3)ncc2C#Cc2cnn(CC(F)F)c2)CC1 [Example 311, N^2-(2-(1-(Cyclopropylsulfonyl)-1H-pyrazol-4-yl)pyrimidin-4-yl)-5-((1-(2,2-difluoroethyl)-1H-pyrazol-4-yl)ethynyl)-N^4-((1s,4s)-4-((dimethylamino)methyl)cyclohexyl)pyridine-2,4-diamine]
0.1 nM	0.3 nM	0.3 nM	0.3 nM	0.6 nM	0.8 nM	5.6 nM	1560 nM	0.8 nM	8.9 nM	–	–	–	–	–	–	–	–	–	CC1(CO)CCN(c2cc(Nc3ccnc(-c4cnn(S(=O)(=O)C5CC5)c4)n3)ncc2C#CC2CCOC2)CC1 (centres unmarked) [Example 197, (1-(2-((2-(1-(Cyclopropylsulfonyl)-1H-pyrazol-4-yl)pyrimidin-4-yl)amino)-5-((tetrahydrofuran-3-yl)ethynyl)pyridin-4-yl)-4-methylpiperidin-4-yl)methanol]
